The values below come from ChEMBL document CHEMBL1159175, “Thiophenoxy peptides: A new class of HIV replication inhibitors” (Bioorg Med Chem Lett, 1996).

The subject of data set [1] is MT4. In words: In vitro antiviral activity against HIV-1 replication in MT-4 cells was determined by 50% inhibition of syncytia formation: Inactive. It is filed as functional, cell-based, Homo sapiens.
Data set [2] has as its system MT4. In words: In vitro antiviral activity against HIV-1 replication in MT-4 cells was determined by 50% inhibition of syncytia formation: Inactive / toxic. It is filed as functional, cell-based, Homo sapiens.
Data set [3] in a line: Therapeutic index was determined by the ratio of ID50/IC50 (ID50: Dose required to cause death of 50% of uninfected MT-4 cells). Format: cell-based, MT4. The following applies: human, MT-4 cells (uninfected, for ID50); read-out: TI.
In data set [4] the test system is MT4. In words: In vitro antiviral activity against HIV-1 replication in MT-4 cells was determined by 50% inhibition of syncytia formation. It is filed as functional, cell-based. The settings on record: Homo sapiens.

pIC50: −log10 of the molar value. Square brackets hold non-standard residues; d marks the D form. Peptide text beside a SMILES is read from it. * marks the point of attachment. Fmoc = O=C(OCC1c2ccccc2-c2ccccc21)*; Gly(SPh) = N[C@@H](Sc1ccccc1)C(=O)O

`C=CCOC(=O)C(NC(=O)C(CC(C)C)NC(=O)OC(C)(C)C)Sc1ccccc1` (stereo not given): the IC50 entry with MT4 [1] is given as “Not Active”.

With `CC(C)CC(NC(=O)OC(C)(C)C)C(=O)NC(Sc1ccccc1)C(=O)O` (stereo not given), the IC50 entry in the data set with MT4 [1] is recorded as “Not Active”.

Regarding `CC[C@H](C)[C@H](NC(=O)OCC1c2ccccc2-c2ccccc21)C(=O)N[C@@H](CCCN=C(N)N)C(=O)N[C@@H](CCCCN)C(=O)N[C@H](C(=O)N[C@@H](CC(C)C)C(=O)N[C@@H](Sc1ccccc1)C(=O)N[C@@H](CC(C)C)C(=O)N[C@@H](CC(=O)O)C(=O)NCC(N)=O)[C@@H](C)CC` (Fmoc-IRKIL[Gly(SPh)]LDG-NH2), the IC50 entry with MT4 [2] is recorded as “Toxic”.

Regarding `CC[C@H](C)[C@H](NC(=O)CNC(=O)[C@H](CC(=O)O)NC(=O)[C@H](CC(C)C)NC(=O)[C@@H](NC(=O)[C@H](CC(C)C)NC(=O)[C@@H](NC(=O)[C@H](CCCCN)NC(=O)[C@H](CCCN=C(N)N)NC(=O)[C@@H](NC(=O)OCC1c2ccccc2-c2ccccc21)[C@@H](C)CC)[C@@H](C)CC)Sc1ccccc1)C(=O)O` (Fmoc-IRKIL[Gly(SPh)]LDGI-OH), the selectivity ratio in data set [3] was determined as 10. For the same compound, in the data set on MT4 [4], the pIC50 was 4.00.

Regarding `CC[C@H](C)[C@H](N)C(=O)N[C@@H](CCCN=C(N)N)C(=O)N[C@@H](CCCCN)C(=O)N[C@H](C(=O)N[C@@H](CC(C)C)C(=O)N[C@@H](Sc1ccccc1)C(=O)N[C@@H](CC(C)C)C(=O)N[C@@H](CC(=O)O)C(=O)NCC(N)=O)[C@@H](C)CC` (H-IRKIL[Gly(SPh)]LDG-NH2), the selectivity ratio in data set [3] turned out to be 50. In addition, the pIC50 in the data set with MT4 [4] was 5.30.

With `CC[C@H](C)[C@H](N)C(=O)N[C@@H](CCCN=C(N)N)C(=O)N[C@@H](CCCCN)C(=O)N[C@H](C(=O)N[C@@H](CC(C)C)C(=O)N[C@@H](Sc1ccccc1)C(=O)N[C@@H](CC(C)C)C(=O)N[C@@H](CC(=O)O)C(=O)NCC(=O)N[C@H](C(=O)O)[C@@H](C)CC)[C@@H](C)CC` (H-IRKIL[Gly(SPh)]LDGI-OH), the selectivity ratio in data set [3] turned out to be 10. In addition, the pIC50 in the data set on MT4 [4] is 5.00.

For the compound H-IRKILFLDGI-OH, the IC50 result in the data set with MT4 [1] is listed as “Not Active”.
